Reference: patent US20070219224A1, “Compositions and Methods Relating to Pyrimidine Synthesis Inhibitors” (UAB RESEARCH FOUNDATION, THE, priority 2004, published 2007)
“Also recorded” adds a separate entry of the source.

Tests used:
[1] = system: RSV-infected BALB/c mice; test: Alveolar fluid clearance (AFC) in RSV-infected mice at day 2 p.i.; type: in vivo; design: effect of uridine in the AFC instillate on the A77-1726 effect on AFC: dose or concentration left out as unconfirmed; conditions: for effect on RSV-mediated inhibition of AFC at day 2 p.i. (in words): added to the AFC instillate
Description: Preparation of viral inocula and infection of mice. […] J. Physiol. Lung Cell Mol. Physiol. […] Data for each experimental group was derived from a minimum of 2 independent infections.
(§1) Systemic inhibition of de novo pyrimidine and purine synthesis. Leflunomide (5-methylisoxazole-4-[4-trifluoromethyl]carboxanilide, 35 mg/kg in distilled water containing 1% methylcellulose) was administered once daily by oral gavage in a volume of 300 μl/mouse for 8 days prior to infection, then throughout the infection period. Vehicle controls were gavaged with an equivalent volume of 1% methylcellulose in distilled water.
To systemically block de novo pyrimidine synthesis, mice were gavaged once daily for 8 days with […] of the dihydro-orotate reductase (DHOR) inhibitor leflunomide ([…] suspended in 1% methylcellulose) or vehicle prior to infection, then at 0 and 24 hours p.i. AFC studies were performed at 48 hours p.i., with no additions to the AFC instillate.
AFC studies were performed on anesthetized, ventilated BALB/c mice with normal body temperature and blood gases, over a 30 minute period after intratracheal instillation of 0.3 ml of isosmolar NaCl containing 5% fatty acid-free BSA. The number of mice analyzed per group is listed in the relevant bar of each graph.

[2] = system: UTP/ATP content of BALF; test: Measurement of nucleotides (UTP/ATP content) in BALF of RSV-infected mice; type: in vivo, BALB/c mice; conditions: d2
Description: (§2) Preparation of viral inocula and infection of mice. Preparation of viral stocks and intranasal infection of eight to twelve week-old pathogen-free BALB/c mice of either sex with RSV strain A2 (10^6 PFU in 100 μl) were performed as described in Davis et al., “Nucleotide-mediated inhibition of alveolar fluid clearance in BALB/c mice after respiratory syncytial virus infection,” Am. J. Physiol. Lung Cell Mol. Physiol. 286:L112-L120. (2004). Data for each experimental group was derived from a minimum of 2 independent infections.
(§3) Bronchoalveolar lavage. Bronchoalveolar lavage fluid (BALF) was collected as previously described in Davis et al., (2004), using 1 ml of sterile normal saline for cytokine ELISAs, or 0.3 ml of sterile saline for nucleotide assays. Lavagates were centrifuged to remove cells and supernatants stored at −80° C.
Measurement of nucleotides in BALF. Endogenous nucleotidases in BALF were heat denatured (100° C., 3 minutes) and UTP/ATP content measured using the […] and luciferine-luciferase assays, respectively.
as §1, with “water. […]” for “water.”

[3] = system: IFN-α, IL-1β, KC, TNF-α in BALF; test: Measurement of proinflammatory cytokines in BALF (ELISA); type: in vivo, BALB/c mice; conditions: RSV-infected mice, d2; exception IFN-α
Description: as §2, §3
as §1, with “water. […].” for “water.”
Measurement of proinflammatory cytokines in BALF. Cytokine levels were determined using Quantikine M ELISA kits (R & D Systems), in accordance with manufacturer's instructions.

[4] = type: in vivo; conditions: RSV-infected mice, D1 and d2
Description: as §2
as §1, with “water. […]” for “water.”

[5] = system: RSV-infected BALB/c mice; test: Lung water content (wet:dry weight ratio) after RSV infection; type: in vivo; conditions: day 2 p.i.
Description: as §2
as §1, with “water. […]” for “water.”

[6] = system: RSV strain A2; test: RSV replication in mouse lungs; type: in vivo, Respiratory syncytial virus; conditions: RSV-infected mice, day 2 p.i.; systemic treatment
Description: as §2
as §1, with “water. […]” for “water.”

[7] = RSV-infected mice, d2, inhibitor 100 μM in AFC instillate (Table 5)

## O=C(O)c1cc([N+](=O)[O-])ccc1NCCCc1ccccc1 [NPPB, 5-nitro-2-(3-phenylpropylamino) benzoic acid]
[1]; [7]
  AFC (mean % AFC ± SE): 32.70 ± 2.18 %
[1]; RSV-infected mice, day 2 p.i., final concentration 100 μM (Table 6)
  AFC30BASAL (mean % basal AFC after 30 minutes ± SE): 35.12 ± 1.94 %
[1]
  effect on RSV-mediated inhibition of AFC at day 2 p.i. (in words): blocked

## O=C(O)c1cccnc1Nc1cccc(C(F)(F)F)c1 [Niflumic acid]
[1]; [7]
  AFC (mean % AFC ± SE): 20.28 ± 1.53%
[1]
  effect on RSV-mediated inhibition of AFC at day 2 p.i. (in words): unaffected

## C[C@]1(C2CCCC2)Cc2cc(OCC(=O)O)c(Cl)c(Cl)c2C1=O [R(+)-IAA 94, R(+)-[(6,7-dichloro-2-cyclopentyl-2,3-dihydro-2-methyl-1-oxo-1H-inden-5yl)-oxy] acetic acid 94]
[1]; [7]
  AFC (mean % AFC ± SE): 34.25 ± 1.98 %
[1]
  effect on RSV-mediated inhibition of AFC at day 2 p.i. (in words): blocked

## CC/C(=C(\c1ccccc1)c1ccc(OCCN(C)C)cc1)c1ccccc1 [Tamoxifen]
[1]; RSV-infected mice, d2, inhibitor 25 μM in AFC instillate (Table 5)
  AFC (mean % AFC ± SE): 34.50 ± 0.94 %
[1]; RSV-infected mice, day 2 p.i., final concentration 25 μM (Table 6)
  AFC30BASAL (mean % basal AFC after 30 minutes ± SE): 34.5 ± 0.95 %
[1]
  effect on RSV-mediated inhibition of AFC at day 2 p.i. (in words): blocked RSV-mediated inhibition of AFC

## O=c1ccn([C@@H]2O[C@H](COP(=O)(O)OP(=O)(O)OP(=O)(O)O)[C@@H](O)[C@H]2O)c(=O)[nH]1 [UTP]
[1]; RSV-infected mice, d2, 500 nM UTP
  effect of UTP in the AFC instillate on the VRAC inhibitor effect on AFC: reversed

## O=c1ccn([C@@H]2O[C@H](CO)[C@@H](O)[C@H]2O)c(=O)[nH]1 [Uridine]
[2]
  effect of concomitant uridine on the leflunomide effect on BALF nucleotides: reversed the effect of leflunomide on BALF UTP and ATP levels; also recorded: caused a significant increase in the BALF nucleotide content over that in untreated RSV-infected mice
[1]; RSV-infected mice, day 2 p.i.
  effect of uridine in the AFC instillate on the A77-1726 effect on AFC: fully reversed; also recorded: blocked
[1]; RSV-infected mice, day 2 p.i., leflunomide 5 mg/kg oral gavage once daily, uridine 1 mg/kg i.p. q12h
  AFC30BASAL (mean % basal AFC after 30 minutes ± SE): 22.89 ± 2.22%
[1]; RSV-infected mice, day 2 p.i., uridine i.p. throughout the leflunomide treatment period
  effect of concomitant uridine on the leflunomide effect on AFC: prevented; also recorded: reversed
[1]; systemic treatment (leflunomide oral gavage; uridine, 6-MP i.p.)
  effect on RSV-mediated inhibition of AFC at d2 (in words): no effect on AFC
[3]
  effect of concomitant uridine on the leflunomide effect on BALF cytokines: only partially reversed
[4]
  effect of concomitant uridine on the leflunomide effect on weight loss: did not prevent this effect
[5]
  effect of concomitant uridine on the leflunomide effect on lung water content: reversed this effect; also recorded: prevented this effect
[6]
  virus replication in lung tissue at d2: no effect on virus replication; also recorded: unaffected

## O=c1[nH]cnc2nc[nH]c12 [hypoxanthine]
[1]; RSV-infected mice, day 2 p.i., 50 mM hypoxanthine as printed
  effect of hypoxanthine in the AFC instillate on the MPA effect on AFC: fully reversed; also recorded: blocked

## apyrase
[1]
  effect on RSV-mediated inhibition of AFC at day 2 p.i. (in words): reversed
